For experiment [1], the target named is T1, SIK1 kinase (aa1-303, Thermo Fisher) (Homo sapiens, UniProt P57059).
T1 construct: SIK1 kinase (aa1-303, Thermo Fisher); purchased Thermo Fisher
Description: Biochemical activities determination for SIK1 protein (TR-FRET). As to conditions: 110 uM ATP, 0.5 μM STK1 substrate. In a few lines:
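TR-FRET kinase assay with SIK1 (aa1-303), 110 uM ATP, 0.5 μM STK1 substrate and 0-10 μM compound in Tris pH 7.5 with MgCl2, EGTA, DTT, Triton X-100. Enzyme preincubated with compound 60 min, reaction 180 min at room temperature; 665/620 nm ratio after overnight detection; IC50 from four-parameter logistic fit.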
On the technique in general: TR-FRET usually uses a lanthanide donor and a delayed reading to cut background.

Experiment [2] has as its target T2, SIK2 kinase (full length, Thermo Fisher) (Homo sapiens, UniProt Q9H0K1).
T2 construct: SIK2 kinase (full length, Thermo Fisher); purchased Thermo Fisher
Description: Biochemical activities determination for SIK2 protein (TR-FRET). Particulars: 80 uM ATP, 0.5 μM substrate. In a few lines:
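Full-length SIK2 preincubated 60 min with 0–10 μM compound, then reacted 180 min at room temperature with 80 uM ATP and 0.5 μM biotinylated substrate (pH 7.5 Tris/MgCl2 buffer). Phosphorylation detected by TR-FRET (665/620 nm ratio, cryptate antibody/streptavidin-XL665) after overnight incubation; IC50 from four-parameter logistic fit.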

For experiment [3], the target named is T3, SIK3 kinase (aa59-365, Thermo Fisher) (Homo sapiens, UniProt Q9Y2K2).
T3 construct: SIK3 kinase (aa59-365, Thermo Fisher); purchased Thermo Fisher
T3 sequence (Q9Y2K2 59-365): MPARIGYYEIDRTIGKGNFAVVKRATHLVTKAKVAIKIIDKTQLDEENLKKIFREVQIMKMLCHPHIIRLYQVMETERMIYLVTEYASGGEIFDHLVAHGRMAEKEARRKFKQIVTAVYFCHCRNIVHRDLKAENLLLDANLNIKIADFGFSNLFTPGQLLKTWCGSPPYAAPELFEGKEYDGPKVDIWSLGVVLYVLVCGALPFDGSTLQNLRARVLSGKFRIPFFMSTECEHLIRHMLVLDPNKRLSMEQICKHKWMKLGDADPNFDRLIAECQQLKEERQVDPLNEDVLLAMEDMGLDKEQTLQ
Description: Biochemical activities determination for SIK3 protein (TR-FRET). As to conditions: 125 uM ATP, 0.5 μM STK1 substrate. In a few lines: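 SIK3 (aa59-365) was preincubated with compound (0-10 μM) for 60 min at room temperature in Tris buffer pH 7.5. The reaction was then started with 125 uM ATP and 0.5 μM STK1 substrate and run 180 min at room temperature. Phospho-substrate was detected by HTRF (665/620 nm ratio), and IC50 came from a four-parameter logistic fit.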

For orientation: IC50 means the concentration needed to halve the response being measured. Low values mean higher potency, high ones lower potency.

T2 sequence (Q9H0K1 whole entry): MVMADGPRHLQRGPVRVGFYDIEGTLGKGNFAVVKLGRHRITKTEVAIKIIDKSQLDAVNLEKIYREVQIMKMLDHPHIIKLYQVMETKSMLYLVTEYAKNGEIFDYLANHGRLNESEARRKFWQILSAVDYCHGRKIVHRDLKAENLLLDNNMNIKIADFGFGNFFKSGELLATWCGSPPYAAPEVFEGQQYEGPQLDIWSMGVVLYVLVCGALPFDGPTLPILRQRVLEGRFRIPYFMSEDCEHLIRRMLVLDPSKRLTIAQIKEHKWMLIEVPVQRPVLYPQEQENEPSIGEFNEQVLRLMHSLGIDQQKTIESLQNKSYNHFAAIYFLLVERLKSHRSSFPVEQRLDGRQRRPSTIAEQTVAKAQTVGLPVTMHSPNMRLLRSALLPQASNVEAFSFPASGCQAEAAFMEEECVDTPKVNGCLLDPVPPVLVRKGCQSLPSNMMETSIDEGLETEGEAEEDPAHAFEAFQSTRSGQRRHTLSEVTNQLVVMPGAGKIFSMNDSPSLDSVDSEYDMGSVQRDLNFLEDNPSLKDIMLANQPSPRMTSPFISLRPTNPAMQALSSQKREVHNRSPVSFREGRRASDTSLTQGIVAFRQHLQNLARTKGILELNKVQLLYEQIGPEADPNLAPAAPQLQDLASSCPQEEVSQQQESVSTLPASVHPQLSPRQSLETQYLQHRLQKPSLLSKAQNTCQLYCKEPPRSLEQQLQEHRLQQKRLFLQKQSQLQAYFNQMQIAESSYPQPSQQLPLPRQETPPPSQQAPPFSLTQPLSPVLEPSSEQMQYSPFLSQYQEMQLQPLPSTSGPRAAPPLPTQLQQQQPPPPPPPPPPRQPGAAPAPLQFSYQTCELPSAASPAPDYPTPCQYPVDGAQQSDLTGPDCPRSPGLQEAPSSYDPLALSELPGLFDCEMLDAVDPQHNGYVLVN
T1 sequence (P57059 1-303): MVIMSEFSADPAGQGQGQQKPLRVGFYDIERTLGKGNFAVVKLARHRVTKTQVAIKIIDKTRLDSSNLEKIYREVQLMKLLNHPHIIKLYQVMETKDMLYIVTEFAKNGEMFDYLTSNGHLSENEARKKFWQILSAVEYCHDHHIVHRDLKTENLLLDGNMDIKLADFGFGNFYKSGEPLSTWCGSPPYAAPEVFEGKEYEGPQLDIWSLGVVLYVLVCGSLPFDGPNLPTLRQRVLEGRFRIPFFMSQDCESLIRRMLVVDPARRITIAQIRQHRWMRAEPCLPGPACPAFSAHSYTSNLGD

With `COc1cc(-c2coc3cc(OCCN4CC[C@@H](F)C4)ccc23)cc(OC(F)F)c1C(=O)N[C@@H]1C[C@@H]1F` [Compound 71, 2-(difluoromethoxy)-N-((1R,2S)-2-fluorocyclopropyl)-4-(6-(2-((R)-3-fluoropyrrolidin-1-yl)ethoxy)benzofuran-3-yl)-6-methoxybenzamide], the IC50 in experiment [1] stood at 1380 nM; in experiment [2], 48 nM; in experiment [3], 39 nM.

In the case of `COc1cc(-c2coc3cc(OCCCN4CCCC4)ccc23)cc(OC(F)F)c1C(=O)N[C@@H]1C[C@@H]1F` [Compound 72, 2-(difluoromethoxy)-N-((1R,2S)-2-fluorocyclopropyl)-6-methoxy-4-(6-(3-(pyrrolidin-1-yl)propoxy)benzofuran-3-yl)benzamide], the half-inhibitory concentration (IC50) in experiment [1] came to 461 nM; in experiment [2], 6 nM; in experiment [3] it was 31 nM.

As to `COc1cc(-c2coc3cc(OCCN(C)C)ccc23)cc(OC(F)F)c1C(=O)N[C@@H]1C[C@@H]1F` [Compound 73, 2-(difluoromethoxy)-4-(6-(2-(dimethylamino)ethoxy)benzofuran-3-yl)-N-((1R,2S)-2-fluorocyclopropyl)-6-methoxybenzamide], the half-inhibitory concentration (IC50) in experiment [1] came out at 3260 nM; in experiment [2], 24 nM; in experiment [3] it was 65 nM.

With `COc1cc(-c2coc3cc(OCCN4CC[C@H](F)C4)ccc23)cc(OC(F)F)c1C(=O)N[C@@H]1C[C@@H]1F` [Compound 74, 2-(difluoromethoxy)-N-((1R,2S)-2-fluorocyclopropyl)-4-(6-(2-((S)-3-fluoropyrrolidin-1-yl)ethoxy)benzofuran-3-yl)-6-methoxybenzamide], the IC50 was determined as 1130 nM in experiment [1], 26 nM in experiment [2] and 34 nM in experiment [3].

For the compound `COc1cc(-c2coc3cc(OCCN4CCC4)ccc23)cc(OC(F)F)c1C(=O)N[C@@H]1C[C@@H]1F` [Compound 75, 4-(6-(2-(azetidin-1-yl)ethoxy)benzofuran-3-yl)-2-(difluoromethoxy)-N-((1R,2S)-2-fluorocyclopropyl)-6-methoxybenzamide], the values for the half-inhibitory concentration (IC50) in experiment [1], in experiment [2] and in experiment [3] were 1740 nM, 16 nM and 93 nM, respectively.

Regarding `COc1cc(-c2coc3cc(OCCN4CCC(C(F)(F)F)C4)ccc23)cc(OC(F)F)c1C(=O)N[C@@H]1C[C@@H]1F` (stereo partly drawn) [Compound 76, 2-(difluoromethoxy)-N-((1R,2S)-2-fluorocyclopropyl)-6-methoxy-4-(6-(2-(3-(trifluoromethyl)pyrrolidin-1-yl)ethoxy)benzofuran-3-yl)benzamide], the half-maximal inhibitory concentration (IC50) worked out at 1010 nM in experiment [1], 34 nM in experiment [2] and 34 nM in experiment [3].

`COc1cc(-c2coc3cc(OCCN4CCC[C@H]4C)ccc23)cc(OC(F)F)c1C(=O)N[C@@H]1C[C@@H]1F` [Compound 77, 2-(difluoromethoxy)-N-((1R,2S)-2-fluorocyclopropyl)-6-methoxy-4-(6-(2-((R)-2-methylpyrrolidin-1-yl)ethoxy)benzofuran-3-yl)benzamide]: the IC50 in experiment [1] is 3370 nM; in experiment [2], 27 nM; in experiment [3] it was 80 nM.

Consider `COc1cc(-c2coc3cc(OCCN4CC[C@@H](C)C4)ccc23)cc(OC(F)F)c1C(=O)N[C@@H]1C[C@@H]1F` [Compound 78, 2-(difluoromethoxy)-N-((1R,2S)-2-fluorocyclopropyl)-6-methoxy-4-(6-(2-((R)-3-methylpyrrolidin-1-yl)ethoxy)benzofuran-3-yl)benzamide], for which the 50% inhibitory concentration (IC50) came to 1890 nM in experiment [1], 19 nM in experiment [2] and 42 nM in experiment [3].

As to `COc1cc(-c2coc3cc(OCCN4CC[C@@H](OC)C4)ccc23)cc(OC(F)F)c1C(=O)N[C@@H]1C[C@@H]1F` [Compound 79, 2-(difluoromethoxy)-N-((1R,2S)-2-fluorocyclopropyl)-6-methoxy-4-(6-(2-((R)-3-methoxypyrrolidin-1-yl)ethoxy)benzofuran-3-yl)benzamide], the results for the IC50 in experiment [1], in experiment [2] and in experiment [3] were 2190 nM, 19 nM and 57 nM, respectively.

For the compound `COc1cc(-c2coc3cc(OCCN4CCC[C@@H]4C)ccc23)cc(OC(F)F)c1C(=O)N[C@@H]1C[C@@H]1F` [Compound 80, 2-(difluoromethoxy)-N-((1R,2S)-2-fluorocyclopropyl)-6-methoxy-4-(6-(2-((S)-2-methylpyrrolidin-1-yl)ethoxy)benzofuran-3-yl)benzamide], the 50% inhibitory concentration (IC50) in experiment [1] was 2850 nM; in experiment [2], 20 nM; in experiment [3], 54 nM.

For the compound `COc1cc(-c2coc3cc(OCCN4CC[C@H](C)C4)ccc23)cc(OC(F)F)c1C(=O)N[C@@H]1C[C@@H]1F` [Compound 81, 2-(difluoromethoxy)-N-((1R,2S)-2-fluorocyclopropyl)-6-methoxy-4-(6-(2-((S)-3-methylpyrrolidin-1-yl)ethoxy)benzofuran-3-yl)benzamide], the values for the IC50 in experiment [1], in experiment [2] and in experiment [3] were 1890 nM, 11 nM and 32 nM, respectively.

In the case of `COc1cc(-c2coc3cc(OCCN4CC[C@H](OC)C4)ccc23)cc(OC(F)F)c1C(=O)N[C@@H]1C[C@@H]1F` [Compound 82, 2-(difluoromethoxy)-N-((1R,2S)-2-fluorocyclopropyl)-6-methoxy-4-(6-(2-((S)-3-methoxypyrrolidin-1-yl)ethoxy)benzofuran-3-yl)benzamide], the half-maximal inhibitory concentration (IC50) is 1470 nM in experiment [1], 15 nM in experiment [2] and 57 nM in experiment [3].

For `COc1cc(-c2coc3cc(OCCN4CCN(C)CC4)ccc23)cc(OC(F)F)c1C(=O)N[C@@H]1C[C@@H]1F` [Compound 83, 2-(difluoromethoxy)-N-((1R,2S)-2-fluorocyclopropyl)-6-methoxy-4-(6-(2-(4-methylpiperazin-1-yl)ethoxy)benzofuran-3-yl)benzamide], the half-maximal inhibitory concentration (IC50) is 737 nM in experiment [1], 13 nM in experiment [2] and 75 nM in experiment [3].

`COc1cc(-c2coc3cc(OCCCN4CCCCC4)ccc23)cc(OC(F)F)c1C(=O)N[C@@H]1C[C@@H]1F` [Compound 84, 2-(difluoromethoxy)-N-((1R,2S)-2-fluorocyclopropyl)-6-methoxy-4-(6-(3-(piperidin-1-yl)propoxy)benzofuran-3-yl)benzamide]: the half-maximal inhibitory concentration (IC50) in experiment [1] amounted to 559 nM; in experiment [2], 9 nM; in experiment [3] it was 44 nM.

With `COc1cc(-c2coc3cc(OCCCN4CCN(C)CC4)ccc23)cc(OC(F)F)c1C(=O)N[C@@H]1C[C@@H]1F` [Compound 85, 2-(difluoromethoxy)-N-((1R,2S)-2-fluorocyclopropyl)-6-methoxy-4-(6-(3-(4-methylpiperazin-1-yl)propoxy)benzofuran-3-yl)benzamide], the 50% inhibitory concentration (IC50) came out at 236 nM in experiment [1], 8.1 nM in experiment [2] and 32.8 nM in experiment [3].

`COc1cc(-c2coc3cc(OCCCN4CCOCC4)ccc23)cc(OC(F)F)c1C(=O)N[C@@H]1C[C@@H]1F` [Compound 86, 2-(difluoromethoxy)-N-((1R,2S)-2-fluorocyclopropyl)-6-methoxy-4-(6-(3-morpholinopropoxy)benzofuran-3-yl)benzamide]: the half-inhibitory concentration (IC50) in experiment [1] was determined as 562 nM; in experiment [2] it was 18 nM; in experiment [3], 43 nM.

Consider `COc1cc(-c2coc3cc(OCCN4CCC(F)(F)C4)ccc23)cc(OC(F)F)c1C(=O)N[C@@H]1C[C@@H]1F` [Compound 87, 2-(difluoromethoxy)-4-(6-(2-(3,3-difluoropyrrolidin-1-yl)ethoxy)benzofuran-3-yl)-N-((1R,2S)-2-fluorocyclopropyl)-6-methoxybenzamide], for which the values for the IC50 in experiment [1], in experiment [2] and in experiment [3] were 1090 nM, 78 nM and 22 nM, respectively.

`COc1cc(-c2coc3cc(OCCN4CCC[C@H](C)C4)ccc23)cc(OC(F)F)c1C(=O)N[C@@H]1C[C@@H]1F` [Compound 88, 2-(difluoromethoxy)-N-((1R,2S)-2-fluorocyclopropyl)-6-methoxy-4-(6-(2-((S)-3-methylpiperidin-1-yl)ethoxy)benzofuran-3-yl)benzamide]: the results for the concentration for half-maximal inhibition (IC50) in experiment [1], in experiment [2] and in experiment [3] were 4540 nM, 17 nM and 68 nM, respectively.

For `COc1cc(-c2coc3cc(OCCN4CCC[C@@H](C)C4)ccc23)cc(OC(F)F)c1C(=O)N[C@@H]1C[C@@H]1F` [Compound 89, 2-(difluoromethoxy)-N-((1R,2S)-2-fluorocyclopropyl)-6-methoxy-4-(6-(2-((R)-3-methylpiperidin-1-yl)ethoxy)benzofuran-3-yl)benzamide], the IC50 in experiment [1] was found to be 4210 nM; in experiment [2], 24 nM; in experiment [3], 74 nM.

With `COc1cc(-c2coc3cc(OCCN4CC[C@H](C(C)C)C4)ccc23)cc(OC(F)F)c1C(=O)N[C@@H]1C[C@@H]1F` [Compound 90, 2-(difluoromethoxy)-N-((1R,2S)-2-fluorocyclopropyl)-4-(6-(2-((R)-3-isopropylpyrrolidin-1-yl)ethoxy)benzofuran-3-yl)-6-methoxybenzamide], the IC50 in experiment [1] was found to be 2350 nM; in experiment [2], 13 nM; in experiment [3], 33 nM.

Values taken from patent US20260085053A1, “BENZOFURAN DERIVATIVES AS SIK INHIBITORS AND THE USE THEREOF” (BEONE MEDICINES I GMBH, priority 2023, published 2026).
